What was measured:
[1] = test system: Gli1 expression (Smoothened signaling); assay: Gli1 expression in mouse skin after depilation and oral compound dosing (quantitative PCR relative to RGS); type: in vivo; conditions: five days after depilation, six hours after administration
Description: Paladini et al. (2005) J Invest Dermatol 125:638-646. For this work, the mice were deplilated using wax strips (Sally Hansen, Del Laboratories, Inc, Uniondale, N.Y.). Five days after depilation, mice were dosed orally with compound or vehicle. Six hours after compound administration, animals were euthanized and skin samples were collected. RNA was purified from the skin samples using a mirVana miRNA Isolation kit (Ambion, Austin, Tex.). cDNA was prepared from the RNA, and Gli1 expression levels were determined by real-time, quantitative PCR relative to the RGS reference gene.

[2] = test system: medulloblastomas from Ptch+/−p53−/− mice; assay: Mouse medulloblastoma allograft model, antitumor activity in vivo; conditions: 10 mg/kg, one dose per day, after 6 days of treatment; tumors of average size 200 mm^3 at start
Description: Briefly, medulloblastomas from Ptch+/−p53−/− mice were subcutaneously implanted into immunocompromised mice, and subsequent passages of these tumor allografts were used for compound testing. For compound studies, animals bearing tumors with an average size of 200 mm^3 were treated with vehicle or 10 mg/kg compound 23 on a schedule of one dose per day for a total of 6 days.

Compound	[Gli1/RGS ratio compound]/[Gli1/RGS ratio vehicle] ([1]; 100 mg/kg oral)	[Gli1/RGS ratio compound]/[Gli1/RGS ratio vehicle] ([1]; 50 mg/kg oral)	reduction in tumor size relative to vehicle control [2]
C[C@H]1CN(c2nnc(-c3ccccc3)c3ccccc23)CCN1C(=O)c1ccccc1 [Compound 5, (S)-(2-methyl-4-(4-phenylphthalazin-1-yl)piperazin-1-yl)(phenyl)-methanone]	0.41		
C[C@@H]1CN(C(=O)c2ccccc2)CCN1c1nnc(-c2ccc(C(F)(F)F)cc2)c2ccccc12 [Compound 23, (R)-(3-methyl-4-(4-(4-(trifluoromethyl)-phenyl)-phthalazin-1-yl)piperazin-1-yl)(phenyl)-methanone]		0.33	> 99%

From US8153633B2, “Phthalazine compounds, compositions and methods of use” (Amgen Inc., priority 2007, dated 2012)
